Patent US20200278355A1, “CONJUGATED PROTEINS AND USES THEREOF” (THE SCRIPPS RESEARCH INSTITUTE, priority 2017, published 2020)

Tests used:
[1] = target: T1, FLAG-NR0B1-C274V (Homo sapiens, UniProt P51843, C274V); test: Gel-based BPK-29yne labeling of the NR0B1-C274V mutant in HEK293T cells; assay type: cell-based; details: 30 min, in-gel fluorescence
T1 construct: expressed in transfected cells; host or cells: HEK-293T, transient, pRK5-based vector
Experimental: (§1) 4×10^6 HEK-293T cells were seeded in poly-L-lysine coated 10 cm plates and transfected the next day with 5 μg of FLAG-NR0B1, FLAG-NR0B1-C274V, or FLAG-METAP2 cDNA in a pRK5-based expression vector. 48 h after transfection, cells were treated with indicated concentrations of BPK-29 or control compound BPK-27 for 3 h at 37° C. in DMEM containing 10% FBS and supplements as described in Cell Culture. BPK-29yne (5 μM) was then added and incubated for an additional 30 min at 37° C. FLAG immunoprecipitates were prepared as described above and following washes, the FLAG resin was resuspended in PBS (100 μL). To each sample, 12 μL of a freshly prepared “click” reagent mixture was added to conjugate the fluorophore to probe-labeled proteins. […] Samples were boiled for 5 min and proteins were resolved by SDS-PAGE (10% acrylamide), and visualized by in-gel fluorescence on a Bio-Rad ChemiDoc MP flatbed fluorescence scanner. Samples were also analyzed by immunoblotting. Recombinantly expressed FLAG-tagged protein levels were determined with the FLAG antibody (Sigma). Gel fluorescence and imaging was processed using Image Lab (v 5.2.1) software.

[2] = target: T2, FLAG-NR0B1 (WT) (Homo sapiens, UniProt P51843); test: Gel-based BPK-29yne labeling of NR0B1 and competition in HEK293T cells; assay type: cell-based; details: 30 min, in-gel fluorescence
T2 construct: expressed in transfected cells; host or cells: HEK-293T, transient, pRK5-based vector
T2 sequence (P51843 whole entry): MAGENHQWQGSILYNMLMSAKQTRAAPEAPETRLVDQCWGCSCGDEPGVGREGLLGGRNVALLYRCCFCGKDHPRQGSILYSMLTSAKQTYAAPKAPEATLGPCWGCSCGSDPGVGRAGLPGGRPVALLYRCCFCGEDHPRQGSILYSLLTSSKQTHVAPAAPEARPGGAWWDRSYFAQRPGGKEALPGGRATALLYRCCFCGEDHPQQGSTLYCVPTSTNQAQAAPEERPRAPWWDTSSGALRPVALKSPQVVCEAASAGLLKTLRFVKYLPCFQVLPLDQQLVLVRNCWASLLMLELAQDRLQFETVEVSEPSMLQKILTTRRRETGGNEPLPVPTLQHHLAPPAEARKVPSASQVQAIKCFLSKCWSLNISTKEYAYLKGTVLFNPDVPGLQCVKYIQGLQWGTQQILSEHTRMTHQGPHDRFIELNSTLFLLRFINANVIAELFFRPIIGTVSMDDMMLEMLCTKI
Experimental: as §1

T1 sequence (P51843 whole entry C274V): as the sequence (P51843 whole entry) above, with C274V counted along it

BPK-29yne labeling of NR0B1 C274V mutant [1]: but not a C274V mutant
BPK-29yne labeling of WT-NR0B1 [2]: labeled WT-NR0B1
SMILES: C#Cc1cccc(CN(C(=O)CCl)C2CCCN(C(=O)c3ccc(N4CCOCC4)cc3)CC2)c1 (centres unmarked) [BPK-29yne, 2-chloro-N-(3-ethynylbenzyl)-N-(1-(4-morpholinobenzoyl)azepan-4-yl)acetamide]
